In patent US10611760B2, “Therapeutic compounds as inhibitors of the orexin-1 receptor” (C4X Discovery Limited, priority 2014, dated 2020):

Key:
Type in all cases: cell-based
hOX1R [1] = molecular target: T1, hOX1R (Homo sapiens, UniProt O43613); assay: Intracellular calcium measurements using division-arrested cells, OX1; details: agonist orexin A at 2×EC50, * = single experiment, otherwise average of at least two, read-out: pIC50 OX1 (converted)
T1 sequence (O43613 1-425): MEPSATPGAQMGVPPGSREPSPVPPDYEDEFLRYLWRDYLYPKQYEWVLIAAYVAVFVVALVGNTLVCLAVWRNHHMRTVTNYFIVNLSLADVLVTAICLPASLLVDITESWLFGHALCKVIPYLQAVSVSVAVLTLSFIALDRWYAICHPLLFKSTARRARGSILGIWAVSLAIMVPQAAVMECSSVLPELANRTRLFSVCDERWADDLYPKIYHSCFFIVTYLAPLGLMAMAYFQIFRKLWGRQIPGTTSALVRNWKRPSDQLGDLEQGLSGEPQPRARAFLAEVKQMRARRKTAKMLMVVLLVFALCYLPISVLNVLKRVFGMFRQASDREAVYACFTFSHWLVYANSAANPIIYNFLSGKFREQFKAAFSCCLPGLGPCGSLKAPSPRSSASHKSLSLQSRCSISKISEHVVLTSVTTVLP
Method in brief: (§1)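 Division-arrested cells expressing human OX1 or OX2 were seeded for 16 h, then loaded with Calcium 5 dye plus probenecid for 1 h at 37 °C. Compounds in HEPES-buffered HBSS with 0.1% BSA, pH 7.4, top final concentration 10 μM, were added 10 min before the FlexStation calcium read.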

hOX2R [2] = molecular target: T2, hOX2R (Homo sapiens, UniProt O43614); assay: Intracellular calcium measurements using division-arrested cells, OX2; details: agonist orexin B at 2×EC50, * = single experiment, otherwise average of at least two, read-out: pIC50 OX2 (converted)
T2 sequence (O43614 1-444): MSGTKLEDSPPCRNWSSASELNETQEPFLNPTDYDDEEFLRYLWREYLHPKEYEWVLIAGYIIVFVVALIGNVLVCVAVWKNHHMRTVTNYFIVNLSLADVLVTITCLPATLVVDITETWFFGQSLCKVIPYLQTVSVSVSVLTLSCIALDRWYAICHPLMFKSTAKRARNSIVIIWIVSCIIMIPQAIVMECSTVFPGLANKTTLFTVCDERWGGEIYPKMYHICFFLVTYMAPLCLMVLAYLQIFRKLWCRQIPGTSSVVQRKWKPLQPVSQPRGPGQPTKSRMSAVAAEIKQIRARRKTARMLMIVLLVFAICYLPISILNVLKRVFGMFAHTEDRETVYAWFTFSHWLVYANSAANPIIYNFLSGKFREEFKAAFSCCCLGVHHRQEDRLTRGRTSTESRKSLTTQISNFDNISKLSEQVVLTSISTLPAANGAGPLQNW
Method in brief: as §1

hOX1R [3] = molecular target: T1, hOX1R; assay: Intracellular calcium measurements using stable-replicating cells, Method A, OX1; details: orexin-A at 4×EC50, * = single experiment, read-out: pIC50 OX1 (converted)
Procedure: (§2) Intracellular Calcium Measurements Using Stable-replicating Cells:
(§3) Method A (Table 2): Test compounds are prepared as 10 mM stock solutions in DMSO, warmed briefly for 20 seconds at 37° C. and serially diluted in half log concentrations with DMSO followed by dilution with assay buffer (HBSS (Sigma-Aldrich, H8264) containing 10 mM HEPES (Invitrogen, 15630080) and pH adjusted to 7.4) to a top final assay concentration of 10 μM.
(§4) Human OX1 (CT-A674) and human OX2 (CT-A675) receptor-expressing stable-replicating cells are grown in a culture medium, Ham F12 (Invitrogen, 31765-035) containing 10% fetal bovine serum (Invitrogen, 16000044), 1% non-essential amino acids (Invitrogen, 11140-050), 100 U/mL Penicillin/Streptomycin (Invitrogen, 15140-122) and G418 (Invitrogen, 11811023) at a concentration of 400 μg/mL. The cells are seeded at a density of 7,000 cells/well into black, clear bottom 384-well plates (Corning, 3683) and incubated at 37° C. in air supplemented with 5% CO2 for 16 hrs.
(§5) Loading dye (25 μL/well), prepared from a FLIPR Calcium 6 Assay kit (Molecular Devices, R8190-Explorer) according to the manufacturer's instructions, and the serially diluted test compounds (10 μL/well) are added to the plate. The plate is then incubated for 30 mins at 37° C. in 5% CO2, then for 30 mins at ambient temperature and placed into a FlexStation III reader.

hOX2R [4] = molecular target: T2, hOX2R; assay: Intracellular calcium measurements using stable-replicating cells, Method A, OX2; details: orexin-A at 4×EC50, * = single experiment, read-out: pIC50 OX2 (converted)
Procedure: as §2, §3, §4, §5

hOX2R [5] = molecular target: T2, hOX2R; assay: Intracellular calcium measurements using stable-replicating cells, Method B (CHO cells, FLIPR Tetra), OX2; details: orexin A at EC75, read-out: pIC50 OX2 (converted)
Procedure: as §2
(§6) Human OX1 or human OX2 receptor expressing CHO cells are plated into 384 well black, clear bottom, CellBIND plates at a seeding density of 10,000 cells/75 μL growth media. The seeded plates are incubated at 37° C. in air supplemented with 5% CO2 overnight.
(§7) The next day media is removed and replaced with 30 μL/well of cell loading buffer (a vial of Calcium 5 is solubilized in 20 mL of assay buffer) and the cells incubated for 1 hr at 37° C. The serially diluted test compounds (10 μL/well) are added to the cell plate by the FLIPR Tetra and the addition is monitored for 5 mins by the instrument. The cell plate is then removed and incubated for additional 25 mins in a humidified incubator at […] prior to being placed back into the FLIPR Tetra. Finally 10 μL of orexin A in assay buffer +0.1% (w/v) bovine serum albumin is dispensed by the FLIPR Tetra at an EC75 concentration determined for each assay run. Fluorescence is measured at excitation and emission wavelengths of 485 nm and 525 nm respectively and data analyzed using GraphPad Prism for the EC75 value of orexin A and Aplus to determine an IC50 value for each test compound.

hOX1R [6] = molecular target: T1, hOX1R; assay: Intracellular calcium measurements using stable-replicating cells, Method B (CHO cells, FLIPR Tetra), OX1; details: orexin A at EC75, read-out: pIC50 OX1 (converted)
Procedure: as §2, §6, §7

Row | Compound | IC50 (hOX1R [1]) | IC50 (hOX2R [2]) | IC50 (hOX1R [3]) | IC50 (hOX2R [4]) | IC50 (hOX2R [5]) | IC50 (hOX1R [6])
1 | Cc1nc(-c2ccccc2)c(C(=O)N[C@H](CNc2ccc(Cl)cn2)C(C)C)s1 [Example 6, (S)—N-(1-((5-chloropyridin-2-yl)amino)-3-methylbutan-2-yl)-2-methyl-4-phenylthiazole-5-carboxamide] | 501 nM | > 10000 nM | 3160 nM | > 10000 nM | – | –
2 | CC[C@@H](CNc1ncc(Cl)cc1[N+](=O)[O-])N(C)C(=O)c1cc(Cl)ccc1-n1nccn1 [Example 45, (S)-5-chloro-N-(1-((5-chloro-3-nitropyridin-2-yl)amino)butan-2-yl)-N-methyl-2-(2H-1,2,3-triazol-2-yl)benzamide] | – | – | 126 nM | > 10000 nM | – | –
3 | CC[C@@H](CNc1ncc(C(F)(F)F)cn1)N(C)C(=O)c1cc(Cl)ccc1-n1nccn1 [Example 39, (S)-5-chloro-N-methyl-2-(2H-1,2,3-triazol-2-yl)-N-(1-((5-(trifluoromethyl)pyrimidin-2-yl)amino)butan-2-yl)benzamide] | – | 1000 nM | – | > 10000 nM | 1580 nM | –
4 | CC[C@@H](CNc1nc2cc(Cl)ccc2o1)N(C)C(=O)c1nc(C)ccc1-n1nccn1 [Example 64, (S)—N-(1-((5-chlorobenzo[d]oxazol-2-yl)amino)butan-2-yl)-N,6-dimethyl-3-(2H-1,2,3-triazol-2-yl)picolinamide] | – | – | 5.01 nM | 2510 nM | – | –
5 | CC[C@@H](CNc1nc2ccccc2o1)N(C)C(=O)c1cc(Cl)ccc1-n1nccn1 [Example 43, (S)—N-(1-(benzo[d]oxazol-2-ylamino)butan-2-yl)-5-chloro-N-methyl-2-(2H-1,2,3-triazol-2-yl)benzamide] | – | – | 10 nM | 1000 nM | 794 nM | 0.794 nM
6 | CC[C@@H](CNc1ncc(C(F)(F)F)cn1)N(C)C(=O)c1cccc2cccnc12 [Example 79, (S)—N-methyl-N-(1-((5-(trifluoromethyl)pyrimidin-2-yl)amino)butan-2-yl)quinoline-8-carboxamide] | – | – | 100 nM | 1580 nM | 2510 nM | 79.4 nM
7 | CC[C@@H](CNc1ncc2ccccc2n1)N(C)C(=O)c1nc(C)ccc1-n1nccn1 [Example 61, (S)—N,6-dimethyl-N-(1-(quinazolin-2-ylamino)butan-2-yl)-3-(2H-1,2,3-triazol-2-yl)picolinamide] | – | – | 3.98 nM | 1580 nM | 3160 nM | 2.51 nM
8 | CC[C@@H](CNc1ncc(Cl)cc1N)N(C)C(=O)c1cc(Cl)ccc1-n1nccn1 [Example 60, (S)—N-(1-((3-amino-5-chloropyridin-2-yl)amino)butan-2-yl)-5-chloro-N-methyl-2-(2H-1,2,3-triazol-2-yl)benzamide] | – | – | 39.8 nM | > 10000 nM | – | –
9 | CC[C@@H](CNc1ncc(C(F)(F)F)cn1)N(C)C(=O)c1cc(Cl)cc2cccnc12 [Example 80, (S)-6-chloro-N-methyl-N-(1-((5-(trifluoromethyl)pyrimidin-2-yl)amino)butan-2-yl)quinoline-8-carboxamide] | – | – | 25.1 nM | 200 nM | 316 nM | 10 nM
10 | CC[C@@H](CNc1nc2ccccc2o1)N(C)C(=O)c1nc(C)ccc1-n1nccn1 [Example 62, (S)—N-(1-(benzo[d]oxazol-2-ylamino)butan-2-yl)-N,6-dimethyl-3-(2H-1,2,3-triazol-2-yl)picolinamide] | – | – | 5.01 nM | – | 2510 nM | 3.16 nM
11 | Cc1nc(-c2ccccc2)c(C(=O)N(C)[C@H](CNc2ccc(Cl)cn2)CC(C)C)s1 [Example 9, (S)—N-(1-((5-chloropyridin-2-yl)amino)-4-methylpentan-2-yl)-N,2-dimethyl-4-phenylthiazole-5-carboxamide] | 251 nM | > 10000 nM | 2000 nM | > 10000 nM | – | –
12 | Cc1ccc(-n2nccn2)c(C(=O)N(C)[C@H](CNc2ncc(C(F)(F)F)cn2)CC(F)(F)F)n1 [Example 88, (S)—N,6-dimethyl-3-(2H-1,2,3-triazol-2-yl)-N-(4,4,4-trifluoro-1-((5-(trifluoromethyl)pyrimidin-2-yl)amino)butan-2-yl)picolinamide] | – | – | 39.8 nM | > 10000 nM | – | 10 nM
13 | CC[C@@H](CNc1ccc2ccccc2n1)N(C)C(=O)c1nc(C)ccc1-n1nccn1 [Example 75, (S)—N,6-dimethyl-N-(1-(quinolin-2-ylamino)butan-2-yl)-3-(2H-1,2,3-triazol-2-yl)picolinamide] | – | – | 6.31 nM | 2000 nM | 2510 nM | 1.26 nM
14 | CC[C@@H](CNc1ncc(C(F)(F)F)cn1)N(C)C(=O)c1nccc2ccccc12 [Example 85, (S)—N-methyl-N-(1-((5-(trifluoromethyl)pyrimidin-2-yl)amino)butan-2-yl)isoquinoline-1-carboxamide] | – | – | 50.1 nM | 3160 nM | – | 100 nM
15 | CC[C@@H](CNc1nc2ccccc2s1)N(C)C(=O)c1cc(Cl)ccc1-n1nccn1 [Example 44, (S)—N-(1-(benzo[d]thiazol-2-ylamino)butan-2-yl)-5-chloro-N-methyl-2-(2H-1,2,3-triazol-2-yl)benzamide] | – | – | 7.94 nM | – | – | 1.58 nM
16 | CC[C@@H](CNc1ncc(C(F)(F)F)cn1)N(C)C(=O)c1nc(C)cc2ccccc12 [Example 78, (S)—N,3-dimethyl-N-(1-((5-(trifluoromethyl)pyrimidin-2-yl)amino)butan-2-yl)isoquinoline-1-carboxamide] | – | – | 25.1 nM | 1000 nM | – | 15.8 nM
17 | CC[C@@H](CNc1ccc(Cl)cn1)N(C)C(=O)c1cc(C)ccc1-n1nccn1 [Example 1, (S)—N-(1-((5-chloropyridin-2-yl)amino)butan-2-yl)-N,5-dimethyl-2-(2H-1,2,3-triazol-2-yl)benzamide] | – | 1000 nM | – | 1260 nM | – | –
18 | CC[C@@H](CNc1ccc(Cl)cn1)N(C)C(=O)c1cc(C)c(C)cc1-n1nccn1 [Example 86, (S)—N-(1-((5-chloropyridin-2-yl)amino)butan-2-yl)-N,4,5-trimethyl-2-(2H-1,2,3-triazol-2-yl)benzamide] | – | – | 7.94 nM | 316 nM | – | –
